From the CATMoS acute toxicity set (Mansouri et al. 2021)
Several values for one entry are separate records, joined by “and”; a condition that tells them apart may be missing. Equal values may be shown once.

Tests used:
[1] = Very toxic (VT; LD50≤50mg/kg vs. all others); settings: rat; in vivo; po
Description: (§1) […]The data set underlying the modeling effort for this project was initially compiled by NICEATM and U.S. EPA’s CCTE. Briefly, LD50 data were collected from rat acute oral systemic toxicity tests, including limit tests, ranges/confidence intervals, and discrete LD50 values. The full data set included 21,200 LD50 entries for 15,688 substances. […] Data were reviewed to ensure that LD50 values with obvious errors in the extracted data such as unit conversion errors (e.g., comma and decimal separator misplacements) were either fixed or removed. After this review, 16,209 LD50 values remained. Many of the chemicals represented had multiple LD50 entries, requiring that a single representative value per Chemical Abstracts Service Registry Number (CASRN) identifier be defined to facilitate modeling efforts. Based on ATWG feedback and to define the representative LD50 as a protective value while accounting for the distribution across multiple LD50s, the median of the lowest quartile was computed using only discrete LD50 values (omitting limit test data and range and confidence interval data). A detailed summary of the data compilation is available online on the NICEATM webpage dedicated to the collaborative modeling project (NTP 2020).
(§2) […][…] For categorical designations, limit test and range/confidence interval LD50 data were integrated wherever possible. As such, the number of chemicals with end point values/calls varies across the modeling end points (Table 3) based on whether chemicals had representative LD50 values and/or other data. If a chemical had both, the representative value was used to determine categorical calls rather than limit test data. Some data were useable only for certain end points and categories depending on the thresholds. For example, ranges that spanned multiple hazard categories were considered only for the binary (very toxic/nontoxic) end points and omitted from rendering a determination for hazard category assignment.
(§3) […]The final data set comprising 11,992 chemicals was split into training and evaluation sets […], respectively. This process was performed semirandomly by ordering chemicals based on the five end points (categorical and continuous LD50 values) and partitioning every fourth record into the evaluation set accordingly. This approach was taken to ensure an equivalent distribution of the LD50 values and the different hazard categories between the training and the evaluation sets without supervised sampling of the chemicals based on structures (Figure 1A). The sources of the chemical structures were also kept equivalent between the two sets, with chemical structures obtained from DSSTox, being the highest quality, representing over 75% of each set (Figure 1B).

[2] = Nontoxic (NT; LD50>2,000mg/kg vs. all others); settings: rat; in vivo; po
Description: as §1, §2, §3

rat acute oral toxicity = settings: in vivo
[3] = GHS categories as the set defines them, by LD50: 1 up to 5, 2 up to 50, 3 up to 300, 4 up to 2000, 5 above 2000 mg/kg; settings: rat; in vivo; po

| Structure (SMILES) | LD50 (rat acute oral toxicity) | other results |
| --- | --- | --- |
| CSc1c(C)cc(O)cc1C | – | very_toxic [1]: FALSE (not_very_toxic) |
| O=CC1=C(Cl)C(=CO)CCC1 | – | nontoxic [2]: FALSE (not_nontoxic) |
| CN(C)CCOCCOC(=O)NCC1(C)CC(NC(=O)OCCOCCN(C)C)CC(C)(C)C1 (stereo not given) | – | nontoxic [2]: FALSE (not_nontoxic) |
| CC(=O)O | 1940 mg/kg | GHS category [3]: 5 |
| O=C1CCCCCN1 | 1200 mg/kg | GHS category [3]: 4 |
| CC(C)CN | 224 mg/kg | – |
| NNC(=O)c1ccncc1 | 650 mg/kg | – |
| CCOC(=O)CCl | 50 mg/kg | – |
| CCCCC(Cc1cc(C(C)(C)C)c(O)c(C(C)(C)C)c1)(C(=O)OC1CC(C)(C)N(C)C(C)(C)C1)C(=O)OC1CC(C)(C)N(C)C(C)(C)C1 | 1490 mg/kg | – |
| N#CSCSc1nc2ccccc2s1 | 679 mg/kg | – |
| CCC(C)=O | 2740 mg/kg | – |
| C=CC#N | 78 mg/kg | – |
| CCC12COCN1COC2 | 3670 mg/kg | – |
| CC1(C)[C@H](C(=O)O[C@H](C#N)c2cccc(Oc3ccccc3)c2)[C@@H]1C(Br)C(Br)(Br)Br (stereo not given in full) | 99 mg/kg | – |
| C[C@H]1OC(=O)[C@@H](C)OC1=O | 3540 mg/kg | – |
| O=C1NS(=O)(=O)c2ccccc21 | 8820 mg/kg | – |
| O=C(O)COc1nc(Cl)c(Cl)cc1Cl | 630 mg/kg | – |
| CCCCN=C=O | 360 mg/kg | – |
| CCOP(=S)(Oc1ccc([N+](=O)[O-])cc1)c1ccccc1 (stereo not given) | 7 mg/kg | – |

| Structure (SMILES) | LD50 (rat acute oral toxicity) | other results |
| --- | --- | --- |
| Cc1ccc2nc(-c3ccc(N)cc3)sc2c1 | 5650 mg/kg | – |
| CCCCCCCCC=CCCCCCCCCOCCO | 2700 mg/kg | – |
| C1CCC2CCCCC2C1 (stereo not given) | 4170 mg/kg | – |
| CCCCCCCCCCCCCCN(C)C | 1320 mg/kg | – |
| CC(O)C(=O)O (stereo not given) | 3540 mg/kg | – |
| CCON=C(CC)C1=C(O)CC(c2c(C)cc(C)cc2C)CC1=O (stereo not given) | 934 mg/kg | – |
| ClC1=C(Cl)C2(Cl)C3C4CC(C5OC45)C3C1(Cl)C2(Cl)Cl (stereo not given) | 3 mg/kg | – |
| CN(C)C(=O)Nc1ccc(Oc2ccc(Cl)cc2)cc1 | 3000 mg/kg | – |
| c1cc[n+]2c(c1)-c1cccc[n+]1CC2 | 220 mg/kg and 120 mg/kg | – |
| COP(=O)(OC)O/C(=C\Cl)c1cc(Cl)c(Cl)cc1Cl | 480 mg/kg | – |
| Cc1ccc(NC(=O)N(C)C)cc1Cl | 5800 mg/kg | – |
| CNC(=O)Oc1ccccc1OC(C)C | 41 mg/kg | – |
| Nc1ccccc1C(F)(F)F | 1870 mg/kg | – |
| CCCCCCCCCc1ccc(OCCOCCO)cc1 | 1310 mg/kg | – |
| N=C(N)N | 475 mg/kg and 730 mg/kg | – |
| O=C(Cl)c1ccc(Cl)cc1 | 3150 mg/kg | – |
| O=C1OC(=O)C2C1C1(Cl)C(Cl)=C(Cl)C2(Cl)C1(Cl)Cl (stereo not given) | 2130 mg/kg | – |
| CC(C)CO | 2460 mg/kg | – |
| CC=O | 661 mg/kg | – |

| Structure (SMILES) | LD50 (rat acute oral toxicity) | other results |
| --- | --- | --- |
| CN(C)C(=O)Nc1ccc(Cl)c(Cl)c1 | 437 mg/kg | – |
| O=C1CCCC(=O)O1 | 540 mg/kg | – |
| CCN(C(=O)N(CC)c1ccccc1)c1ccccc1 | 781 mg/kg | – |
| CC(COCC(C)OC(=O)c1ccccc1)OC(=O)c1ccccc1 (stereo not given) | 3300 mg/kg | – |
| C#CC(C)(C)NC(=O)c1cc(Cl)cc(Cl)c1 | 3350 mg/kg | – |
| CC12CC(N3CCOCC3)C(O)CC1CCC1C2CCC2(C)C(O)C(N3CCCC3)CC12 (stereo not given) | – | nontoxic [2]: FALSE (not_nontoxic) |
| CCCC=C(C=O)CC | 3000 mg/kg | – |
| CCCOCC(C)O (stereo not given) | 2490 mg/kg | – |
| O=C(O)CF | 0.1 mg/kg | – |
| C=COCCCC | 10000 mg/kg | – |
| N=C(NCCCCCCNC(=N)NC(=N)Nc1ccc(Cl)cc1)NC(=N)Nc1ccc(Cl)cc1 | 1180 mg/kg | – |
| O=c1oc2ccccc2c(O)c1C1CC(c2ccc(-c3ccc(Br)cc3)cc2)Cc2ccccc21 (stereo not given) | 0.16 mg/kg | – |
| Cc1cc(C)cc(N)c1 | 707 mg/kg | – |
| CCCCOCCOC(C)=O | 1880 mg/kg | – |
| N#Cc1ccccc1O | 300 mg/kg | – |
| NC(=O)CF | 5.75 mg/kg | – |
| ClCc1ccccc1 | 440 mg/kg | – |
| CCCCCCCC/C=C\CCCCCCCC(=O)O | 25000 mg/kg | GHS category [3]: 5 |
| CC#N | 2490 mg/kg | – |
